According to publication PMC9623506, “Development of a novel peptide inhibitor of subtilisin BPN′” (FEBS Open Bio, 2022):
Like-named read-outs stand apart in the source and are kept apart here. Positions of bridges follow the written chain, without caps; N, C: chain ends. Residues, ends and D or L forms follow the SMILES beside them. No end group written: not given here.

B1: EGL: leech eglin‐C (protein, UniProt P01051 1-70, looked up)
Eglin C: TEFGSELKSFPEVVGKTVDQAREYFTLHYPQYDVYFLPEGSPVTLDLRYNRVRVFYNPGTNVVNHVPHVG
B2: SSI: Streptomyces subtilisin inhibitor (protein, UniProt P01006 32-144, looked up)
Subtilisin inhibitor: DAPSALYAPSALVLTVGKGVSATTAAPERAVTLTCAPGPSGTHPAAGSACADLAAVGGDLNALTRGEDVMCPMVYDPVLLTVDGVWQGKRVSYERVFSNECEMNAHGSSVFAF

Tests used:
subtilisin BPN′ [1] = target: T1, subtilisin BPN′ (Bacillus amyloliquefaciens, UniProt P00782); test: biochemical; assay type: biochemical; settings: for Inhibitory activity / binding in words, by Ki: synthetic substrate N‐suc‐AAPF‐pNA, compared with prototype ASIP or single mutants
T1 construct: purchased Sigma-Aldrich (Tokyo, Japan)
T1 sequence (P00782 108-382): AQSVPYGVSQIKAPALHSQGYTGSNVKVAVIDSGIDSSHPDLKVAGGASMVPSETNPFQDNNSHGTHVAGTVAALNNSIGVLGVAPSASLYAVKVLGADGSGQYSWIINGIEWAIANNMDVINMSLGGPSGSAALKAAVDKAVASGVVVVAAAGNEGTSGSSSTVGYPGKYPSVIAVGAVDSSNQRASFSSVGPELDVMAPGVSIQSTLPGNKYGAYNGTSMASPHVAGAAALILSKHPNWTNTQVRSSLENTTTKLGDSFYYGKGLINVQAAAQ
Description: Subtilisin BPN′ and N‐succinyl‐Ala‐Ala‐Pro‐Phe‐p‐nitroanilide (N‐suc‐AAPF‐pNA) were purchased from Sigma‐Aldrich (Tokyo, Japan). The oligopeptides used in this study were synthesized by Eurofins Genomics (Tokyo, Japan). The formation of an S‐S bond in each peptide was accomplished by incubating an equimolar amount of cystine with the peptide, and the concentrations of the oxidized peptides were determined by amino acid analyses after hydrolysis of the peptide with 6 M HCl at 110 °C for 24 h in vacuo.
The inhibitory activities of peptides against subtilisin BPN′ were preliminarily measured using the casein‐Folin method. First, casein was incubated with subtilisin BPN′ in the absence or presence of various molar ratios of synthetic peptides at 37 °C and pH 7.0 for 10 min. Trichloroacetic acid was added to the reaction mixture to precipitate the undigested casein, and the supernatant was mixed with sodium carbonate and Folin's phenol reagent. The absorbance at 660 nm was then measured to determine the amount of peptide obtained by digestion. Inhibitory activity was defined as the reduction in the amount of peptides derived from the enzymatic digestion of casein in the presence of a synthetic peptide when compared to the amount of peptides in the absence of synthetic peptides. To determine the K i values, the proteolytic activities of subtilisin BPN′ in the presence of various molar ratios of synthetic peptides were measured using a synthetic substrate, N‐suc‐AAPF‐pNA, as described previously, and then, the K i values were calculated by nonlinear curve fitting using the Morrison equation [13].

subtilisin BPN′ [2] = target: T1, subtilisin BPN′; settings: against subtilisin BPN′; cited from earlier work
subtilisin BPN′ [3] = target: T1, subtilisin BPN′; test: ASIP without a disulfide bond with subtilisin BPN′: inhibition and cleavage; assay type: biochemical
Excerpt: To clarify the relationship between disulfide bond formation and its activity as a subtilisin inhibitor, we measured the inhibitory activities of ASIP with or without a disulfide bond. […] The inhibitory properties of the oxidized form of ASIP were then investigated.

subtilisin Carlsberg = settings: against subtilisin Carlsberg; cited from earlier work
Excerpt: Table 3 Proteinaceous subtilisin inhibitors. Amino acid residue lengths, sequences from the P4 to P4′ positions, and K i values against subtilisin BPN′ or Carlsberg of the inhibitors are listed. The most conserved residues at each position are shown in bold font. Residue numbers at the P1 position are indicated by superscript numbers.

Row | Molecule | Ki (subtilisin BPN′ [1]) | also measured
1 | CC(C)C[C@@H]1NC(=O)[C@@H](NC(=O)[C@H](CO)NC(=O)[C@H](Cc2ccccc2)NC(=O)[C@H](CC(=O)O)NC(=O)[C@@H](N)CO)CSSC[C@@H](C(=O)N[C@@H](CCCNC(=N)N)C(=O)N[C@H](C(=O)O)[C@@H](C)O)NC(=O)CNC(=O)[C@H](CCC(=O)O)NC(=O)[C@H](CO)NC1=O [ASIP] (H-SDFSCLSEGCRT-OH; disulfide 5-10) | 13 ± 1.64 nM | 
2 | CC(C)C[C@@H]1NC(=O)[C@@H](NC(=O)[C@H](CO)NC(=O)[C@H](Cc2ccccc2)NC(=O)[C@H](CC(=O)O)NC(=O)[C@@H](N)CO)CSSC[C@@H](C(=O)N[C@@H](CCCNC(=N)N)C(=O)N[C@@H](C)C(=O)O)NC(=O)CNC(=O)[C@H](CCC(=O)O)NC(=O)[C@H](C)NC1=O [S7A + T12A] (H-SDFSCLAEGCRA-OH; disulfide 5-10) | 2.72 ± 0.04 nM | 
3 | CC(C)C[C@@H]1NC(=O)[C@@H](NC(=O)[C@H](CO)NC(=O)[C@H](Cc2ccccc2)NC(=O)[C@H](CC(=O)O)NC(=O)[C@@H](N)CO)CSSC[C@@H](C(=O)N[C@@H](CCCNC(=N)N)C(=O)N[C@@H](CCCCN)C(=O)O)NC(=O)CNC(=O)[C@H](CCC(=O)O)NC(=O)[C@H](C)NC1=O [S7A + T12K] (H-SDFSCLAEGCRK-OH; disulfide 5-10) | 0.3 ± 0.02 nM | 
4 | CC(C)C[C@@H]1NC(=O)[C@@H](NC(=O)[C@H](CO)NC(=O)[C@H](Cc2ccccc2)NC(=O)[C@H](CC(=O)O)NC(=O)[C@@H](N)CO)CSSC[C@@H](C(=O)N[C@@H](CCCNC(=N)N)C(=O)N[C@H](C(=O)O)[C@@H](C)O)NC(=O)CNC(=O)[C@H](CCC(=O)O)NC(=O)[C@H](C)NC1=O [S7A] (H-SDFSCLAEGCRT-OH; disulfide 5-10) | 2.58 ± 0.2 nM | 
5 | CC(C)C[C@@H]1NC(=O)[C@@H](NC(=O)[C@H](CO)NC(=O)[C@H](Cc2ccccc2)NC(=O)[C@H](CC(=O)O)NC(=O)[C@@H](N)CO)CSSC[C@@H](C(=O)N[C@@H](CCCNC(=N)N)C(=O)NCC(=O)O)NC(=O)CNC(=O)[C@H](CCC(=O)O)NC(=O)CNC1=O [S7G + T12G] (H-SDFSCLGEGCRG-OH; disulfide 5-10) | 7.73 ± 0.34 nM | 
6 | CC(C)C[C@@H]1NC(=O)[C@@H](NC(=O)[C@H](CO)NC(=O)[C@H](Cc2ccccc2)NC(=O)[C@H](CC(=O)O)NC(=O)[C@@H](N)CO)CSSC[C@@H](C(=O)N[C@@H](CCCNC(=N)N)C(=O)N[C@H](C(=O)O)[C@@H](C)O)NC(=O)CNC(=O)[C@H](CCC(=O)O)NC(=O)CNC1=O [S7G] (H-SDFSCLGEGCRT-OH; disulfide 5-10) | 5.14 ± 0.3 nM | 
7 | CC(C)C[C@@H]1NC(=O)[C@@H](NC(=O)[C@H](CO)NC(=O)[C@H](Cc2ccccc2)NC(=O)[C@H](CC(=O)O)NC(=O)[C@@H](N)CO)CSSC[C@@H](C(=O)N[C@@H](CCCNC(=N)N)C(=O)N[C@@H](C)C(=O)O)NC(=O)CNC(=O)[C@H](CCC(=O)O)NC(=O)[C@H](CO)NC1=O [T12A] (H-SDFSCLSEGCRA-OH; disulfide 5-10) | 17.4 ± 1.42 nM | 
8 | CC(C)C[C@@H]1NC(=O)[C@@H](NC(=O)[C@H](CO)NC(=O)[C@H](Cc2ccccc2)NC(=O)[C@H](CC(=O)O)NC(=O)[C@@H](N)CO)CSSC[C@@H](C(=O)N[C@@H](CCCNC(=N)N)C(=O)N[C@@H](CC(=O)O)C(=O)O)NC(=O)CNC(=O)[C@H](CCC(=O)O)NC(=O)[C@H](CO)NC1=O [T12D] (H-SDFSCLSEGCRD-OH; disulfide 5-10) | 23.1 ± 3.35 nM | Inhibitory activity / binding in words, by Ki (subtilisin BPN′ [1]): decreased the inhibitory activity
9 | CC(C)C[C@@H]1NC(=O)[C@@H](NC(=O)[C@H](CO)NC(=O)[C@H](Cc2ccccc2)NC(=O)[C@H](CC(=O)O)NC(=O)[C@@H](N)CO)CSSC[C@@H](C(=O)N[C@@H](CCCNC(=N)N)C(=O)NCC(=O)O)NC(=O)CNC(=O)[C@H](CCC(=O)O)NC(=O)[C@H](CO)NC1=O [T12G] (H-SDFSCLSEGCRG-OH; disulfide 5-10) | 10.6 ± 0.55 nM | 
10 | CC(C)C[C@@H]1NC(=O)[C@@H](NC(=O)[C@H](CO)NC(=O)[C@H](Cc2ccccc2)NC(=O)[C@H](CC(=O)O)NC(=O)[C@@H](N)CO)CSSC[C@@H](C(=O)N[C@@H](CCCNC(=N)N)C(=O)N[C@@H](CCCCN)C(=O)O)NC(=O)CNC(=O)[C@H](CCC(=O)O)NC(=O)[C@H](CO)NC1=O [T12K] (H-SDFSCLSEGCRK-OH; disulfide 5-10) | 5.43 ± 0.29 nM | Inhibitory activity / binding in words, by Ki (subtilisin BPN′ [1]): significantly higher inhibition and binding affinity
11 | CC(C)C[C@H](NC(=O)[C@H](CCCNC(=N)N)NC(=O)[C@@H]1CSSC[C@H](NC(=O)[C@H](CO)NC(=O)[C@H](Cc2ccccc2)NC(=O)[C@H](CC(=O)O)NC(=O)[C@@H](N)CO)C(=O)N[C@@H](CC(C)C)C(=O)N[C@@H](CO)C(=O)N[C@@H](CCC(=O)O)C(=O)NCC(=O)N1)C(=O)O [T12L] (H-SDFSCLSEGCRL-OH; disulfide 5-10) | 12.9 ± 1.02 nM | 
12 | CC(C)C[C@@H]1NC(=O)[C@@H](NC(=O)[C@H](CO)NC(=O)[C@H](Cc2ccccc2)NC(=O)[C@H](CC(=O)O)NC(=O)[C@@H](N)CO)CSSC[C@@H](C(=O)N[C@@H](CCCNC(=N)N)C(=O)N[C@@H](CCCNC(=N)N)C(=O)O)NC(=O)CNC(=O)[C@H](CCC(=O)O)NC(=O)[C@H](CO)NC1=O [T12R] (H-SDFSCLSEGCRR-OH; disulfide 5-10) | 4.41 ± 0.24 nM | Inhibitory activity / binding in words, by Ki (subtilisin BPN′ [1]): significantly higher inhibition and binding affinity
13 | OMTKY3: turkey ovomucoid third domain |  | Ki (subtilisin BPN′ [2]): 0.023 nM
14 | SDFSCLSEGCRT (cysteine pairing not given here) [ASIP without a disulfide bond, ASIP without the Cys5‐Cys10 disulfide bond] |  | Inhibitory activity against subtilisin BPN′ in words (subtilisin BPN′ [3]; ASIP without a disulfide bond, substrate not stated): lacked inhibitory activity; Cleavage by subtilisin BPN′ (subtilisin BPN′ [3]; reduced / linear form of ASIP, cleaved at the peptide bond between Leu6 and Ser7): specifically cleaved
15 | marinostatin (FATMRYPSDSDE) [MST] |  | Ki (subtilisin BPN′ [2]): 1.5 nM
16 | B1 |  | Ki (subtilisin Carlsberg): 0.15 nM
17 | B2 |  | Ki (subtilisin BPN′ [2]): 0.005 nM
